These results are taken from patent publication US12414565B2, “Pyridazine (THIO)amides as fungicidal compounds” (Bayer Aktiengesellschaft, priority 2018, dated 2025).

Each structure is given as a SMILES string.

In general, LogP refers to a log measure of how a compound divides between an organic and an aqueous phase. High values mean a more lipophilic compound, low ones a more hydrophilic compound. In general, inhibition refers to the change of the read-out against control, counted positive when it falls.

A short description of data set [1]: Measurement of Log P values by HPLC on reversed phase columns (EEC directive 79/831 Annex V.A8). In kind it is physicochemical. The protocol: Measurement of Log P values as provided herein was performed according to EEC directive 79/831 Annex V.A8 by HPLC (High Performance Liquid Chromatography) on reversed phase columns with the following methods: • ^[a]
If more than one Log P value is available within the same method, all the values are given and separated by “+”.
Lambda-max-values were determined using UV-spectra from 200 nm to 400 nm and the peak values of the chromatographic signals

A further data set relates to Alternaria brassicae. As to the kind of experiment: In vivo preventive test on Alternaria brassicae (leaf spot on radish or cabbage). As to conditions: 144 h, 500 ppm of active ingredient, preventive spray on radish or cabbage, evaluated 6 days after inoculation, 100% = no disease, read-out: efficacy. As to the method: (§1) The active ingredients were made soluble and homogenized in a mixture of Dimethyl sulfoxide/Acetone/Tween® 80 and then diluted in water to the desired concentration.
The young plants of radish or cabbage were treated by spraying the active ingredient prepared as described above. Control plants were treated only with an aqueous solution of Acetone/Dimethyl sulfoxide/Tween® 80.
After 24 hours, the plants were contaminated by spraying the leaves with an aqueous suspension of Alternaria brassicae spores. The contaminated radish or cabbage plants were incubated for 6 days at 20° C. and at 100% relative humidity.
The test was evaluated 6 days after the inoculation. 0% means an efficacy which corresponds to that of the control plants while an efficacy of 100% means that no disease was observed.

The next data set has as its system Septoria tritici. As to the kind of experiment: Septoria tritici in vitro cell test. In kind it is cell-based. As to conditions: Zymoseptoria tritici, 168 h; 20 ppm of active ingredient; liquid culture, 7 days incubation, absorbance; read-out: efficacy (inhibition of fungal growth). The protocol:
(§2) [table] Fungicides were solubilized in DMSO and the solution used to prepare the required range of concentrations. The final concentration of DMSO used in the assay was ≤1%. A spore suspension of S. tritici was prepared and diluted to the desired spore density. Fungicides were evaluated for their ability to inhibit spore germination and mycelium growth in liquid culture assay. The compounds were added in the desired concentration to the culture medium with spores. After 7 days incubation, fungi-toxicity of compounds was determined by spectrometric measurement of mycelium growth. Inhibition of fungal growth was determined by comparing the absorbance values in wells containing the fungicides with the absorbance in control wells without fungicides.

Another data set concerns Botrytis cinerea. As to the kind of experiment: In vivo preventive test on Botrytis cinerea (grey mould). To be noted: 500 ppm of active ingredient, preventive spray on gherkin or cabbage, evaluated 4 to 5 days after inoculation, 100% = no disease, read-out: efficacy. The protocol:
as §1
The young plants of gherkin or cabbage were treated by spraying the active ingredient prepared as described above. Control plants were treated only with an aqueous solution of Acetone/Dimethyl sulfoxide/Tween® 80.
After 24 hours, the plants were contaminated by spraying the leaves with an aqueous suspension of Botrytis cinerea spores. The contaminated gherkin plants were incubated for 4 to 5 days at 17° C. and at 90% relative humidity. The contaminated cabbage plants were incubated for 4 to 5 days at 20° C. and at 100% relative humidity.
The test was evaluated 4 to 5 days after the inoculation. 0% means an efficacy which corresponds to that of the control plants while an efficacy of 100% means that no disease was observed.

The next data set concerns Sphaerotheca fuliginea. Put plainly: In vivo preventive test on Sphaerotheca fuliginea (powdery mildew on cucurbits). As to conditions: Podosphaera fuliginea, 192 h; 500 ppm of active ingredient; preventive spray on gherkin; evaluated 8 days after inoculation; 100% = no disease; read-out: efficacy. The protocol:
as §1
The young plants of gherkin were treated by spraying the active ingredient prepared as described above. Control plants were treated only with an aqueous solution of Acetone/Dimethyl sulfoxide/Tween® 80.
After 24 hours, the plants were contaminated by spraying the leaves with an aqueous suspension of Sphaerotheca fuliginea spores. The contaminated gherkin plants were incubated for 8 days at 20° C. and at 70-80% relative humidity.
The test was evaluated 8 days after the inoculation. 0% means an efficacy which corresponds to that of the control plants while an efficacy of 100% means that no disease was observed.

For the next data set, the system named is Alternaria alternata. Put plainly: Alternaria alternata in vitro cell test. Type of data set: cell-based. As to conditions: 120 h, 20 ppm of active ingredient, liquid culture, 5 days incubation, absorbance, read-out: efficacy (inhibition of fungal growth). As to the method:
as §2, with “<1%.” for “≤1%.”, “A. alternata” for “S. tritici”, “5” for “7”

The test system of data set [2] is Colletotrichum lindemuthianum. As to the kind of experiment: Colletotrichum lindemuthianum in vitro cell test. Type of data set: cell-based. As to conditions: 144 h, 20 ppm of active ingredient, liquid culture, 6 days incubation, absorbance, read-out: efficacy (inhibition of fungal growth). The protocol: as §2, with “of C. lindemuthianum” for “of S. tritici”, “inhibit spores” for “inhibit spore”, “After 6” for “After 7”

The test system of a further data set is Pyrenophora teres. As to the kind of experiment: In vivo preventive test on Pyrenophora teres (net blotch on barley). To be noted: 240 h, 500 ppm of active ingredient, preventive spray on barley, evaluated 10 days after inoculation, 100% = no disease, read-out: efficacy. As to the method:
as §1
The young plants of barley were treated by spraying the active ingredient prepared as described above. Control plants were treated only with an aqueous solution of Acetone/Dimethyl sulfoxide/Tween® 80.
After 24 hours, the plants were contaminated by spraying the leaves with an aqueous suspension of Pyrenophora teres spores. The contaminated barley plants were incubated for 48 hours at 20° C. and at 100% relative humidity and then for 8 days at 20° C. and at 70-80% relative humidity.
The test was evaluated 10 days after the inoculation. 0% means an efficacy which corresponds to that of the control plants while an efficacy of 100% means that no disease was observed.

As for `Cc1ccc(C(F)(F)CNC(=O)c2cc(C)nnc2Cl)c(C)c1` [3-06], the LogP in data set [1] (method [a]: LC-UV, acidic range, 0.1% formic acid in water / acetonitrile, Table 7, formula (3)) is 3.20^[a].

Take `Cc1ccc(C(F)(F)CNC(=O)c2c(Oc3cccc(C4CC4)c3F)nnc(Cl)c2C)c(Br)c1` [I-840]: in data set [1] (method marked [a], HPLC on reversed phase columns), the LogP is 4.57^[a].

Regarding `Cc1ccc(C(F)(F)CNC(=O)c2c(Oc3cccc(Cl)c3)nnc(Cl)c2C)c(C)c1` [I-790, 6-chloro-3-(3-chlorophenoxy)-N-[2-(2,4-dimethylphenyl)-2,2-difluoro-ethyl]-5-methyl-pyridazine-4-carboxamide], the pest or weed control at 500 ppm with Alternaria brassicae, in the data set on Botrytis cinerea and in the data set with Sphaerotheca fuliginea was 90 to 100% in each case. Further, the inhibition at 20 ppm lay within 70 to 79% in the data set with Septoria tritici, 90 to 100% in the data set with Alternaria alternata and 90 to 100% in data set [2].

With `O=C(O)c1ccnnc1Oc1cccc(C(F)(F)F)c1` [1-129], in data set [1] (method [a]: LC-UV, acidic range, 0.1% formic acid in water / acetonitrile, Table 3, formula (1)), the LogP was 1.47^[a].

As to `Cc1cc(C(=O)NCCc2ccc(C(F)F)cn2)c(Oc2cccc(C(F)(F)F)c2)nn1` [I-525], the LogP in data set [1] (LogP method [a]) turned out to be 2.57; in data set [1] (LogP method [b]), 2.71.

As to `O=C(NCC(F)(F)c1ccc(Br)cc1Cl)c1cc(C2CC2)nnc1Oc1cccc(C(F)(F)F)c1` [I-312], the log partition coefficient (LogP) in data set [1] (method [a]) stood at 4.79; in data set [1] (method [b]), 4.68.

Consider `COCCc1c(Cl)nnc(Oc2cccc(C(F)(F)F)c2)c1C(=O)NCC(F)(F)c1ccc(Br)cc1Cl` [I-070, N-[2-(4-bromo-2-chloro-phenyl)-2,2-difluoro-ethyl]-6-chloro-5-(2-methoxyethyl)-3-[3-(trifluoromethyl)phenoxy]pyridazine-4-carboxamide], for which the pest or weed control at 500 ppm in the data set with Alternaria brassicae, in the data set on Pyrenophora teres, in the data set on Botrytis cinerea and in the data set with Sphaerotheca fuliginea was 90 to 100% each time. For the same compound, the inhibition at 20 ppm (in the data set with Septoria tritici; with Alternaria alternata; in data set [2]) was 90 to 100% each time.

Regarding `Cc1ccc(C(F)(F)CNC(=O)c2c(Oc3cccc(C(F)(F)F)c3)nnc(Cl)c2-c2cccnc2)c(C)c1` [I-550, 6-chloro-N-[2-(2,4-dimethylphenyl)-2,2-difluoro-ethyl]-5-(3-pyridyl)-3-[3-(trifluoromethyl)phenoxy]pyridazine-4-carboxamide], the pest or weed control at 500 ppm in the data set on Alternaria brassicae, in the data set with Botrytis cinerea and in the data set on Sphaerotheca fuliginea was 90 to 100% in each case. Besides, the inhibition at 20 ppm (in the data set with Septoria tritici; in the data set on Alternaria alternata; in data set [2]) was 90 to 100% in each case.

`Cc1ccc(C(F)(F)CNC(=O)c2c(Oc3cccc(C(F)(F)F)c3)nnc(Cl)c2NC2CC2C2CC2)c(C)c1` (stereo not drawn) [I-812]: the LogP in data set [1] (method [a]) is 4.87^[a].
